Assay results reported in patent US7589070B2, “Surface modification for improving biocompatibility” (The Children's Hospital of Philadelphia, priority 2001, dated 2009).

Key:
[1] = test system: rat A10 arterial smooth muscle cells; assay: In vitro transduction of A10 cells by adenovirus GFP tethered to steel stents/rods; assay type: cell-based
Protocol: A type 5 adenovirus vector encoding GFP was used in this experiment. Stainless steel stents were incubated with amino-pamidronate, SPDP and anti-adenovirus knob F(ab)′2 antibody; amino-pamidronate and SPDP; amino-pamidronate only; or a stent only, without modification. The specific anti-adenovirus knob F(ab′)2 bound stents were incubated in the ad-GFP solution for 1 hour at 37 C. The virus loading in the incubation pool was 1×10^8 pfu/stent for all groups. The stents were then removed from the virus pool and rinsed with PBS followed by overnight washing. Images obtained by atomic force microscopy confirmed that high levels of vector immobilization could be achieved by this method.
The virus binding efficacy was evaluated in vitro using rat A10 arterial smooth muscle cells. A cell suspension of 5×10^4 A10 cells per ml of M199 medium was prepared with 10% FBS and 1% penicillin/streptomycin. The stent was rinsed with M199 medium once and equilibrated in the M199 medium at 37 C. for 10 minutes in a 6 well culture plate. The medium from the wells was aspirated, holding the stents, and 2 ml cell suspension was added to each well. Cell transduction was observed by fluorescence microscopy using a FITC filter. […] 90% of cells with adenovirus GFP anti-the antibody bound stent were transduced. […] Consequently, transduction efficiency is enhanced in vitro in antibody-bound stents compared to control stents.
A10 smooth muscle cells were transduced with SPDP-anti-adenovirus knob F(ab)′2 antibody-adenovirus GFP bound stainless steel rods, and pretreated with either 1.5 M pamidronate, 3.0 M pamidronate or 5.0 M pamidronate. Cell transduction was proportional to the pamidronate concentration used in a reaction. […] Accordingly, A10 cell transduction efficiency is related to pamidronate concentration used in the reaction.

[2] = Surface phosphorus content of pamidronate-treated steel by SEM and EDAX; assay type: physicochemical

In the case of NCCC(O)(P(=O)(O)O)P(=O)(O)O [pamidronate, 3-amino-hydroxypropylidene-1,1-bisphosphonic acid], the “cell transduction (qualitative)” value ([1]; pretreated with 5 M pamidronate) is reported as “did not show much increase in cell transduction”, the “cell transduction (qualitative)” value ([1]; steel rods pretreated with 1.5 M pamidronate) is reported as “much less cell transduction” and the “cell transduction (qualitative)” value ([1]; steel rods pretreated with 3.0 M pamidronate) is reported as “optimal”. For the same compound, the “phosphorus percent by weight” value ([2]; stainless steel rod after reaction with pamidronate at pH 5, EDAX) was 13% and the “phosphorus percent by weight” value ([2]; stainless steel rod after reaction with pamidronate at pH 7, EDAX) was 1%.
